US6737383B1, “Herbicidal oxadiazolidines” (priority 1999, dated 2004)

Assays:
[1] = tested on: smallflower flatsedge; assay: Test B flood test smallflower flatsedge; format: in vivo, Cyperus difformis
Summary of the method: (§1)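 Read-out is a visual response score from 0 (no effect) to 10 (complete control), assigned by comparison with untreated controls. Treatment was applied at the 2-leaf stage, and plants stayed in the greenhouse for twelve to sixteen days before scoring.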

[2] = tested on: bedstraw; assay: Test B pre/postemergence bedstraw; format: in vivo, Galium aparine; conditions: Preemergence; for Bedstraw plant response rating: scale of 0 to 10 where 0 is no effect and 10 is complete control
Summary of the method: (§2)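 Herbicidal effect was estimated by eye on a ten-point control scale after plants spent twelve to sixteen days in a greenhouse following soil or foliar treatment. Foliar sprays targeted plants at one to four leaves; all doses were formulated in a non-phytotoxic solvent with surfactant.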

[3] = tested on: purple nutsedge; assay: Test B pre/postemergence purple nutsedge; format: in vivo, Cyperus rotundus
Summary of the method: as §2

[4] = tested on: wild oat; assay: Test B pre/postemergence wild oat; format: in vivo, Avena fatua
Summary of the method: as §2

[5] = tested on: cocklebur; assay: Test B pre/postemergence cocklebur; format: in vivo, Xanthium strumarium
Summary of the method: as §2

[6] = tested on: rice; assay: Test B flood test rice; format: in vivo, Oryza sativa
Summary of the method: as §1

[7] = tested on: pigweed; assay: Test B pre/postemergence pigweed; format: in vivo, Amaranthus retroflexus
Summary of the method: as §2

[8] = tested on: crabgrass; assay: Test B pre/postemergence crabgrass; format: in vivo, Digitaria sanguinalis
Summary of the method: as §2

[9] = tested on: bamyardgrass; assay: Test B flood test barnyardgrass; format: in vivo, Echinochloa crus-galli
Summary of the method: as §1

[10] = tested on: velvetleaf; assay: Test B pre/postemergence velvetleaf; format: in vivo, Abutilon theophrasti
Summary of the method: as §2

[11] = tested on: wheat; assay: Test B pre/postemergence wheat; format: in vivo, Triticum aestivum
Summary of the method: as §2

[12] = tested on: surinam grass; assay: Test B pre/postemergence surinam grass; format: in vivo, Brachiaria decumbens
Summary of the method: as §2

[13] = tested on: soybean; assay: Test B pre/postemergence soybean; format: in vivo, Glycine max
Summary of the method: as §2

[14] = tested on: duck salad; assay: Test B flood test duck salad; format: in vivo, Heteranthera limosa
Summary of the method: as §1

[15] = tested on: blackgrass; assay: Test B pre/postemergence blackgrass; format: in vivo, Alopecurus myosuroides
Summary of the method: as §2

[16] = tested on: sugar beet; assay: Test B pre/postemergence sugar beet; format: in vivo, Beta vulgaris
Summary of the method: as §2

[17] = tested on: morningglory; assay: Test B pre/postemergence morningglory; format: in vivo, Ipomoea hederacea
Summary of the method: as §2

[18] = tested on: rape; assay: Test B pre/postemergence rape; format: in vivo, Brassica napus
Summary of the method: as §2

[19] = tested on: giant foxtail; assay: Test B pre/postemergence giant foxtail; format: in vivo, Setaria faberii
Summary of the method: as §2

[20] = tested on: corn; assay: Test B pre/postemergence corn; format: in vivo, Zea mays
Summary of the method: as §2

[21] = Pre-emergence, Rate 1000 g/ha, scale 0 to 10 (0 no effect, 10 complete control)
[22] = Rate 125 g/ha, under heading Pre-emergence, flood test species, visual evaluation after twelve to sixteen days
[23] = Rate 250 g/ha, Pre-emergence (flood test species), scale 0 to 10, 0 is no effect, 10 is complete control
[24] = Rate 500 g/ha, Pre-emergence section of Table B, 0 to 10 scale (0 no effect, 10 complete control)
[25] = Postemergence, Rate 500 g/ha, scale of 0 to 10 where 0 is no effect and 10 is complete control
[26] = Postemergence, Rate 1000 g/ha, scale 0 to 10 (0 no effect, 10 complete control)
[27] = Preemergence, Rate 125 g/ha, scale of 0 to 10 where 0 is no effect and 10 is complete control
[28] = Preemergence, Rate 500 g/ha, scale of 0 to 10 where 0 is no effect and 10 is complete control
[29] = Rate 1000 g/ha, Preemergence, scale 0 to 10 (0 no effect, 10 complete control)
[30] = Postemergence, Rate 125 g/ha, scale of 0 to 10 where 0 is no effect and 10 is complete control
[31] = Postemergence, Rate 250 g/ha, scale of 0 to 10, 0 is no effect, 10 is complete control

Structure (SMILES): CCOP(=O)(Cn1c(=O)on(C(=O)N(c2ccc(Cl)cc2)C(C)C)c1=O)OCC [Compound 599]
- S. Flatsedge plant response rating [1, 21]: 0
- S. Flatsedge plant response rating (0 to 10 scale, 0 is no effect, 10 is complete control) [1, 22]: 0
- S. Flatsedge plant response rating [1, 23]: 0
- S. Flatsedge plant response rating [1, 24]: 0
- Bedstraw plant response rating ([2]; Rate 125 g/ha): 0
- Bedstraw plant response rating (0 to 10 scale) ([2]; Rate 250 g/ha): 0
- Bedstraw plant response rating ([2]; Rate 500 g/ha): 0
- Plant response rating, Bedstraw ([2]; Rate 1000 g/ha, scale 0 to 10 (0 no effect, 10 complete control)): 8
- Plant response rating, Nutsedge [3, 25]: 0
- Nutsedge plant response rating [3, 26]: 0
- Nutsedge plant response rating [3, 27]: 0
- Plant response rating, Nutsedge [3, 28]: 0
- Plant response rating, Nutsedge [3, 29]: 0
- Plant response rating, Wild oats [4, 30]: 0
- Wild oats plant response rating [4, 31]: 0
- Plant response rating, Wild oats [4, 25]: 0
- Wild oats plant response rating [4, 26]: 0
- Wild oats plant response rating [4, 27]: 0
- Plant response rating, Wild oats [4, 28]: 0
- Plant response rating, Wild oats [4, 29]: 0
- Plant response rating, Cocklebur [5, 30]: 0
- Cocklebur plant response rating [5, 31]: 0
- Plant response rating, Cocklebur [5, 25]: 0
- Cocklebur plant response rating [5, 26]: 0
- Cocklebur plant response rating [5, 27]: 0
- Cocklebur plant response rating (0 to 10 scale) ([5]; Preemergence, Rate 250 g/ha): 0
- Plant response rating, Cocklebur [5, 28]: 0
- Plant response rating, Cocklebur [5, 29]: 3
- Rice plant response rating [6, 21]: 0
- Rice plant response rating (0 to 10 scale, 0 is no effect, 10 is complete control) [6, 22]: 0
- Rice plant response rating [6, 23]: 0
- Rice plant response rating [6, 24]: 0
- Plant response rating, Redroot pigweed [7, 30]: 0
- Redroot pigweed plant response rating [7, 31]: 0
- Plant response rating, Redroot pigweed [7, 25]: 0
- Redroot pigweed plant response rating [7, 26]: 0
- Redroot pigweed plant response rating [7, 27]: 0
- Plant response rating, Redroot pigweed [7, 28]: 0
- Plant response rating, Redroot pigweed [7, 29]: 4
- Plant response rating, Crabgrass [8, 30]: 0
- Crabgrass plant response rating [8, 31]: 0
- Plant response rating, Crabgrass [8, 25]: 0
- Crabgrass plant response rating [8, 26]: 0
- Crabgrass plant response rating [8, 27]: 3
- Plant response rating, Crabgrass [8, 28]: 8
- Plant response rating, Crabgrass [8, 29]: 8
- Barnyardgrass plant response rating [9, 21]: 0
- Barnyardgrass plant response rating (0 to 10 scale, 0 is no effect, 10 is complete control) [9, 22]: 0
- Barnyardgrass plant response rating [9, 23]: 0
- Barnyardgrass plant response rating [9, 24]: 0
- Plant response rating, Velvetleaf [10, 30]: 0
- Velvetleaf plant response rating [10, 31]: 0
- Plant response rating, Velvetleaf [10, 25]: 0
- Velvetleaf plant response rating [10, 26]: 3
- Velvetleaf plant response rating [10, 27]: 0
- Plant response rating, Velvetleaf [10, 28]: 0
- Plant response rating, Velvetleaf [10, 29]: 0
- Plant response rating, Wheat [11, 30]: 0
- Wheat plant response rating [11, 31]: 0
- Plant response rating, Wheat [11, 25]: 0
- Wheat plant response rating [11, 26]: 0
- Wheat plant response rating [11, 27]: 0
- Plant response rating, Wheat [11, 28]: 0
- Plant response rating, Wheat [11, 29]: 0
- Plant response rating, B. signalgrass [12, 30]: 0
- B. signalgrass plant response rating [12, 31]: 0
- Plant response rating, B. signalgrass [12, 25]: 0
- B. signalgrass plant response rating [12, 26]: 0
- B. signalgrass plant response rating [12, 27]: 2
- B. signalgrass plant response rating (0 to 10 scale, 0 is no effect, 10 is complete control) ([12]; Preemergence, Rate 250 g/ha): 2
- B. signalgrass plant response rating [12, 28]: 3
- Plant response rating, B. signalgrass [12, 29]: 3
- Plant response rating, Soybean [13, 30]: 2
- Soybean plant response rating [13, 31]: 2
- Plant response rating, Soybean [13, 25]: 2
- Soybean plant response rating [13, 26]: 4
- Soybean plant response rating [13, 27]: 0
- Plant response rating, Soybean [13, 28]: 0
- Plant response rating, Soybean [13, 29]: 0
- Ducksalad plant response rating [14, 21]: 0
- Ducksalad plant response rating (0 to 10 scale, 0 is no effect, 10 is complete control) [14, 22]: 0
- Ducksalad plant response rating [14, 23]: 0
- Ducksalad plant response rating [14, 24]: 0
- Plant response rating, Blackgrass [15, 30]: 0
- Blackgrass plant response rating [15, 31]: 0
- Plant response rating, Blackgrass [15, 25]: 0
- Blackgrass plant response rating [15, 26]: 6
- Blackgrass plant response rating [15, 27]: 0
- Blackgrass plant response rating (0 to 10 scale) ([15]; Preemergence, Rate 250 g/ha): 3
- Blackgrass plant response rating [15, 28]: 6
- Plant response rating, Blackgrass [15, 29]: 8
- Plant response rating, Sugarbeets [16, 30]: 0
- Sugarbeets plant response rating [16, 31]: 0
- Plant response rating, Sugarbeets [16, 25]: 0
- Sugarbeets plant response rating [16, 26]: 0
- Sugarbeets plant response rating [16, 27]: 0
- Plant response rating, Sugarbeets [16, 29]: 2
- Plant response rating, Morningglory [17, 30]: 1
- Morningglory plant response rating [17, 31]: 1
- Plant response rating, Morningglory [17, 25]: 6
- Morningglory plant response rating [17, 26]: 6
- Morningglory plant response rating [17, 27]: 0
- Plant response rating, Morningglory [17, 28]: 0
- Plant response rating, Morningglory [17, 29]: 0
- Plant response rating, Rape [18, 30]: 0
- Rape plant response rating [18, 31]: 0
- Plant response rating, Rape [18, 25]: 0
- Rape plant response rating [18, 26]: 0
- Rape plant response rating [18, 27]: 0
- Plant response rating, Rape [18, 28]: 0
- Plant response rating, Rape [18, 29]: 3
- Plant response rating, Giant foxtail [19, 30]: 0
- Giant foxtail plant response rating [19, 31]: 0
- Plant response rating, Giant foxtail [19, 25]: 0
- Giant foxtail plant response rating [19, 26]: 4
- Giant foxtail plant response rating [19, 27]: 9
- Plant response rating, Giant foxtail [19, 28]: 10
- Plant response rating, Giant foxtail [19, 29]: 10
- Plant response rating, Corn [20, 30]: 0
- Corn plant response rating [20, 31]: 0
- Plant response rating, Corn [20, 25]: 0
- Corn plant response rating [20, 26]: 0
- Corn plant response rating [20, 27]: 0
- Corn plant response rating (0 to 10 scale) ([20]; Preemergence, Rate 250 g/ha): 0
- Plant response rating, Corn [20, 28]: 0
- Plant response rating, Corn [20, 29]: 0
